In US8778298B2, “Isotope labeled 2-arylpropionic acid compounds and process for production of same, and molecular probe for positron emission tomography and method for imaging of cyclooxygenase and the like using same” (Riken, priority 2009, dated 2014):

Experiments:
Assay type in all cases: in vivo
cyclooxygenase-2 [1] = experiment: PET imaging using brain inflammation model rat (LPS injected into left striatum)
Protocol: PET was performed using a brain inflammation model rat for the [^11C]ketoprofen methyl ester (8) synthesized in Example 6. In the experiment, a trace amount, 0.5 μg, of lipopolysaccharide (LPS) that is a constituent of a gram-negative bacteria cell wall outer membrane was injected into the left striatum of a rat, thereby inducing brain inflammation (Hunter R L, Dragicevic N, Seifert K, Choi D Y, Liu M, Kim H C, Cass W A, Sullivan P G, Bing G. Inflammation induces mitochondrial dysfunction and dopaminergic neurodegeneration in the nigrostriatal system. J. Neurochem. 2007100:5:1375-86.). The [^11C]ketoprofen methyl ester (8) was administered to a rat after 1 day from injection of LPS through a caudal vein, PET was performed for 45 minutes using a PET apparatus for small animals (manufactured by microPET, SIMENS). The injection solution of the [^11C]ketoprofen methyl ester (radioactivity 72 to 74 MBq) was prepared by diluting with saline to 1.0 CC volume. In order to further study an effect of inhibiting bonds by a non-RI labeled body, an injection solution added with 10 mg/kg of ketoprofen methyl ester (final concentration of a solvent was 5% DMSO, 5% tween20) was prepared. On completion of PET imaging, a rat brain section was prepared and an Ex vivo autoradiography (ARG) experiment was performed. In the experiment, the rat was perfused with saline, and a section prepared with 2 mm thickness, which was obtained from the brain taken out from the rat, was exposed on an imaging plate BAS SR-2040 (manufactured by Fujifilm Corporation) for 1 hour to read using a fluoroimage analyzer (FLA7000). In order to identify an expression site of cyclooxygenase-2, chemical staining of an immune tissue in a brain section was performed using a specific antibody. That is, 20 μm of a frozen section prepared from the brain section used in the autoradiography mentioned above and pasted on a slide glass was incubated with anti-cyclooxygenase-2 (rabbit IgG, polyclonal antibody, manufactured by Cayman) diluted to PBS-T at a concentration of 200 times as a primary antibody at 4° C. overnight. […]

cyclooxygenase-2 [2] = experiment: Ex vivo autoradiography (ARG) of rat brain section after PET, compared with cyclooxygenase-2 immunostaining
Protocol: PET was performed using a brain inflammation model rat for the [^11C]ketoprofen methyl ester (8) synthesized in Example 6. In the experiment, a trace amount, 0.5 μg, of lipopolysaccharide (LPS) that is a constituent of a gram-negative bacteria cell wall outer membrane was injected into the left striatum of a rat, thereby inducing brain inflammation (Hunter R L, Dragicevic N, Seifert K, Choi D Y, Liu M, Kim H C, Cass W A, Sullivan P G, Bing G. Inflammation induces mitochondrial dysfunction and dopaminergic neurodegeneration in the nigrostriatal system. J. Neurochem. 2007100:5:1375-86.). The [^11C]ketoprofen methyl ester (8) was administered to a rat after 1 day from injection of LPS through a caudal vein, PET was performed for 45 minutes using a PET apparatus for small animals (manufactured by microPET, SIMENS). The injection solution of the [^11C]ketoprofen methyl ester (radioactivity 72 to 74 MBq) was prepared by diluting with saline to 1.0 CC volume. […] In the experiment, the rat was perfused with saline, and a section prepared with 2 mm thickness, which was obtained from the brain taken out from the rat, was exposed on an imaging plate BAS SR-2040 (manufactured by Fujifilm Corporation) for 1 hour to read using a fluoroimage analyzer (FLA7000). […]

APP-Tg mouse brain = experiment: PET imaging of Alzheimer disease model animal (APP-Tg mouse vs wild type mouse)
From the text: PET images were taken using an Alzheimer disease model mouse for the [^11C]ketoprofen methyl ester (21) synthesized in Example 6. For the Alzheimer disease model mouse, a transgenic mouse (APP-Tg) excessively expressing amyloid precursor protein (APP) in familial Alzheimer disease was purchased from Taconic Farms, Inc. USA to be used. In 24 months old when accumulation of amyloid β protein was confirmed as pathological change of Alzheimer disease, the [^11C]ketoprofen methyl ester (21) was administered through a caudal vein, and PET images were taken for 30 minutes using a PET apparatus for small animals (microPET, manufactured by SIMENS). The injection solution of the [^11C]ketoprofen methyl ester (21) (radioactivity 45 to 60 MBq) was prepared by diluting with saline to 1.0 CC volume. SUV (Standard Uptake Value)=tissue radioactivity in region of interest (MBq/g)÷[administration amount (MBq)/body weight (g)] was used as the index of an accumulation level, to compare with a brain of a wild type mouse that is a normal mouse in terms of an accumulation amount into the APP-Tg mouse brain.

accumulation in inflammation region with co-administered non-RI labeled ketoprofen methyl ester (specificity) (cyclooxygenase-2 [1]; 10 mg/kg of non-RI labeled ketoprofen methyl ester added to injection solution): significantly reduced
passage through the blood-brain barrier (PET) (cyclooxygenase-2 [1]; rat 1 day after 0.5 μg LPS into left striatum, tracer via caudal vein, PET 45 minutes): passed through the blood-brain barrier
SMILES: COC(=O)C([11CH3])c1cccc(C(=O)c2ccccc2)c1 (stereo not shown) [[^11C]ketoprofen methyl ester (8), [^11C]ketoprofen methyl ester]
accumulation of radioactivity in brain (addition average of PET images) (cyclooxygenase-2 [1]; rat 1 day after LPS into left striatum, tracer via caudal vein, 45 minutes after administration): accumulated in an inflammation region around the LPS injected site in the left side of the brain
accumulation in ex vivo autoradiography (ARG) of rat brain section (cyclooxygenase-2 [2]; 2 mm brain section taken on completion of PET imaging, LPS rat): accumulated specifically in an inflammation site
accumulated site versus immunostaining of cyclooxygenase-2 (cyclooxygenase-2 [2]; 20 μm frozen section from ARG brain section, anti-cyclooxygenase-2 antibody, DAB method): correspond with a positive site of immunostaining of cyclooxygenase-2
accumulation amount (SUV) in brain, APP-Tg versus wild type mouse (APP-Tg mouse brain; 24 months old APP-Tg mouse, caudal vein, PET images in 25 minutes after 5 minutes from administration): highly accumulated in the APP-Tg mouse brain as compared with the wild type mouse brain
site of high accumulation versus reported site of amyloid β accumulation (APP-Tg mouse brain; APP-Tg mouse brain, compared with literature report (Am J Pathol. 1998)): corresponded with a site that was reported of accumulation of amyloid β
